Results taken from BindingDB's records for doi:10.3109/14756366.2011.596836 (Artvin Coruh University, 2012).
pKi: −log10 of the molar value.

Key:
Experiment in all cases: CA Activity Assay
Conditions in all cases: pH 7.4
Carbonic anhydrase 1 = Carbonic anhydrase 1 (Homo sapiens, UniProt P00915)
Description: (§1) The enzymatic reaction, in a total volume of 3.0 mL, contained 1.4-mL 0.05-M Tris SO4 buffer (pH 7.4), 1-mL 3-mM 4-NPA, 0.5-mL H2O and 0.1-mL enzyme solution. A reference measurement was obtained by preparing the same cuvette without enzyme solution. The inhibitory effects of the phenolic compounds were examined. All compounds were tested in triplicate at each concentration used. Different concentrations of the compounds were used.

Carbonic anhydrase 2 = Carbonic anhydrase 2 (Homo sapiens, UniProt P00918)
Description: as §1

Carbonic anhydrase 6 = Carbonic anhydrase 6 (Homo sapiens, UniProt P23280)
Description: as §1

Carbonic anhydrase 6, sequence (P23280 whole entry): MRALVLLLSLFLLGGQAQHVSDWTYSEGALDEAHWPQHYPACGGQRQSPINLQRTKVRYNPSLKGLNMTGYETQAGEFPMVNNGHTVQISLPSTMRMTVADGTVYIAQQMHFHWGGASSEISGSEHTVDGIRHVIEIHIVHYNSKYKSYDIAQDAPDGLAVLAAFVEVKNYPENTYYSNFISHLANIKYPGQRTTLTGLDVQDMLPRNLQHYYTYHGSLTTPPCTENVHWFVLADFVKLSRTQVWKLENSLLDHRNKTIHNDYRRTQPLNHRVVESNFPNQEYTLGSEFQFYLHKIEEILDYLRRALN
Carbonic anhydrase 1, sequence (P00915 whole entry): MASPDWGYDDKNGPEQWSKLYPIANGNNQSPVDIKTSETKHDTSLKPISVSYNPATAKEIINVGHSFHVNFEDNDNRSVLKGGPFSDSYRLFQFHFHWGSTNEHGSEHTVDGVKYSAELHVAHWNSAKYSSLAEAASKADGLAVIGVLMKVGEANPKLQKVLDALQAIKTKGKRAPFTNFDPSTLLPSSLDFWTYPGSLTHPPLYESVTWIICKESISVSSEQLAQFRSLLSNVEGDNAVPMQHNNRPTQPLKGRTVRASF

SMILES	pKi (Carbonic anhydrase 1)	pKi (Carbonic anhydrase 2)	pKi (Carbonic anhydrase 6)
O=C(c1ccc(O)c(O)c1)c1ccc(O)c(O)c1 [Bis(3,4-dihydroxyphenyl)methanone]	4.74	5.84	4.94
COc1ccc(C(=O)c2ccc(OC)c(OC)c2)cc1OC [hCA inhibitor, 2]	3.39	4.32	3.53
